Data published in patent US20250230435A1, “METHODS OF TREATMENT OF GNAQ AND GNA11 DRIVEN DISEASE” (THE FRANCIS CRICK INSTITUTE LIMITED, priority 2022, published 2025).
“Also recorded” adds a separate entry of the source.

Tests used:
Type in all cases: cell-based, human
TIME GNAQWT cells [1] = test: In vitro angiogenesis (endothelial tube formation) assay, GNAQ WT cells; details: 1 μM, in presence of thrombin 0.3 U/ml, vs vehicle
Source text: (§1) FIG. 8—In vitro angiogenesis is disrupted by mutant GNAQ and rescued by CRAC channel inhibition. (A) Representative images captured with EVOS Floid Imaging System following Calcein AM staining during in vitro endothelial cell tube formation of TIME cells stably expressing either GNAQ WT or GNAQ R183Q. […] Statistical significance calculated using two-tailed unpaired t-test on three independent experiments (**** p<0.0001). […] Results shown as mean of a technical triplicate for each of 4 independent experiments. Statistical analysis performed by two-tailed paired t-test on four independent experiments (n.s=not statistically significant, * p=0.0125). […] Results shown as mean +/−SD of three independent experiments, and statistical analysis performed by two-tailed paired t-test (n.s=not statistically significant, * p=0.04).
(§2) TIME endothelial cell models were used to assess angiogenesis using a standard in vitro angiogenesis assay. […] Furthermore, thrombin GPCR activation disrupted angiogenesis in GNAQR183Q more than in GNAQWT (FIG. 8C).

TIME GNAQR183Q cells [2] = test: In vitro angiogenesis (endothelial tube formation) assay, GNAQ variant cells; details: 1 μM, in presence of thrombin 0.3 U/ml, vs vehicle
Source text: as §1, §2

UPMM1 UM cell line = test: Fluo-8 assay, LTD4-induced intracellular calcium in UPMM1; details: UPMM1, Fluo-8, 1, 3 or 10 μM, leukotriene D4 stimulation
Description: (§3) FIG. 10—GNAQ and CRAC inhibition in uveal melanoma cells. […] UPMM1 cells were non-transfected or transfected with non-target control siRNA (siSCRA) or with 2 distinct GNAQR183Q-mutant specific siRNAs (siGNAQmut3 and siGNAQmut6) and expression of the mutant allele was measured by using GNAQR183Q-mutant specific primers previously validated (forward primer: […] (SEQ ID NO:25); reverse primer: […] (SEQ ID NO:26). B. Transfection with siRNAs silencing GNAQ mutant allele reduced GPCR ligand-induced calcium intra-cellular accumulation. Cells loaded with Fluo-8 calcium marker were stimulated by the GPCR ligand leukotriene D4 (LTD4) and fluorescence was recorded over the time. C. […] Cells loaded with Fluo-8 calcium probe were treated by CM4620 1, 3 or 10 μM, stimulated by the GPCR ligand leukotriene D4 (LTD4) and fluorescence was recorded over the time.

TIME GNAQR183Q cells [3] = test: Fluo-8 AM assay, thrombin-induced intracellular calcium, GNAQ variant cells; details: 1 μM for 20 minutes, thrombin 1 U/ml
Description: (§4) FIG. 3—CRAC channel inhibition and variant-specific siRNAs rescue aberrant calcium signalling in variant cells. A-B. TIME-GNAQ^WT (A) or −GNAQ^R183Q (B) were loaded with intracellular calcium probe Fluo-8 and treated for 20 minutes with vehicle or 1 μM […]. Following treatment, cells were stimulated with thrombin 1 U/ml and fluorescence recorded for 300 seconds. The graphs represent an avarage of three independent experiments performed in technical quadruplicates. C. Means +/−SD deviation of areas under the curve calculated from three experiments summarised in […]. Statistical comparisons were performed by two-tailed paired t test (n.s=not statistically significant, * p=0.0284). […] IP1 concentration was measured 48 hours after transfection and shown as mean +/−SD of three independent experiments. […] TIME-GNAQ p.(R183Q); NFAT-Luc were transfected with non-target siRNA (siSCRA) or two siRNAs for specific silencing of the variant GNAQ allele (siGNAQmut 1 and 3) and luciferase reporter activity was measured 48 hours after transfection in complete medium or after four hours of starvation, shown as mean +/−SD of % change of cells transfected with mock in three independent experiments. […]

TIME GNAQWT cells [4] = test: Fluo-8 AM assay, thrombin-induced intracellular calcium, GNAQ WT cells; details: 1 μM for 20 minutes, thrombin 1 U/ml
Description: as §4

GNAQR183Q mutant allele = test: Expression of GNAQR183Q mutant allele in UPMM1, mutant-specific primers; details: UPMM1 cells
Description: as §3

[5] = system: GNA11 c.547C>T, p.(R183C) allele; test: Western blot knock-down of HA-tagged Gα11 in TIME cells expressing wild-type or p.R183C; details: 25 nM siRNA, 24 h after transfection, TIME cells stably expressing wild-type or p.R183C HA-tagged Gα11
Description: (§5) FIG. 5—Designing and testing siRNA specific for GNAQ c.548G>A, p.(R183Q) A. Schematic representation of the 6 siRNAs designed to target specifically GNAQ c.548G>A allele. B. TIME cells stably expressing either wild-type or p.R183Q HA-tagged Gαq were transfected by 50 nM siRNAs targeting GNAQ c.548G>A, p.(R183Q) allele and analysed by western-blot 24 h after transfection. […] C. (average of three experiments, * p<0.05). D. Schematic representation of the 6 siRNAs designed to target specifically GNA11 c.547C>T p.(R183C). E. TIME cells stably expressing either wild-type or p.R183C HA-tagged Gα11 were transfected by 25 nM siRNAs targeting GNA11 c.547C>T, p.(R183C) allele and analysed by western-blot 24 h after transfection. […] (average of three experiments, * p<0.05).
(§6) hTERT-immortalised microvascular endothelial cells (TIME-ATCC CRL-4025TM, “TIME” cells) and their transgenic derivatives were maintained in EBMTM-2 Endothelial Cell Growth Basal Medium-2 (Lonza CC-3156), supplemented with EGMTM-2 BulletKit (Lonza CC-3162) and 3% fetal bovine serum (Gibco).
(§7) TIME cells were transduced with lentiviral vectors to induce stable expression of HA-tagged forms of GNAQ WT, GNAQ p.(R183Q), GNA11 WT, GNA11 p.(R183C) cDNAs (FIG. 4), and we confirmed presence of the mutations in the genomic DNA by Sanger sequencing (FIG. 4B). […]

[6] = system: GNAQ c.548G>A, p.(R183Q) allele; test: Western blot knock-down of HA-tagged Gαq in TIME cells expressing wild-type or p.R183Q; details: 50 nM siRNA, 24 h after transfection, TIME cells stably expressing wild-type or p.R183Q HA-tagged Gαq
Description: as §5, §6, §7

## Cc1cccc(F)c1C(=O)Nc1cnc(-c2cc3c(cc2Cl)OC(F)(F)O3)cn1 [CM4620]
TIME GNAQWT cells [1]
  tubule formation (total length of the network), GNAQWT: no statistically significant difference; also recorded: not GNAQWT
TIME GNAQR183Q cells [2]
  tubule formation (total length of the network), GNAQR183Q: improved tubule formation
UPMM1 UM cell line
  GPCR ligand (LTD4)-induced accumulation of intracellular calcium: reduced the GPCR ligand-induced accumulation of intracellular calcium
TIME GNAQR183Q cells [3]
  thrombin-induced calcium signalling, GNAQ-variant cells: inhibits the variant cell response; also recorded: markedly rescuing the prolonged calcium intracellular peak
TIME GNAQWT cells [4]
  thrombin-induced calcium signalling, GNAQ WT cells: limited effects

## AGAGUUCAAGUCCCCACCA[dT][dT] (antisense UGGUGGGGACUUGAACUCU; dTdT overhangs, chemistry not fully specified) [siGNAQmut #6, siRNA to GNAQ c.548G>A p.(R183Q)]
GNAQR183Q mutant allele
  expression of the GNAQR183Q mutant allele: reduced expression of the mutant allele

## CUGCGGGUCUGCGUGCCCA[dT][dT] (antisense UGGGCACGCAGACCCGCAG; dTdT overhangs, chemistry not fully specified) [siGNA11mut #4, siRNA to GNA11 c.547C>T p.(R183C)]
[5]
  specific knock-down of variant Gα11 protein over wild-type (western blot): specific knock-down of variant protein over wild-type counterparts

## CUUAGAGUUCAAGUCCCCA[dT][dT] (antisense GGGGACUUGAACUCUAAGC; dTdT overhangs, chemistry not fully specified) [siGNAQmut #3, siRNA to GNAQ c.548G>A p.(R183Q)]
[6]
  specific knock-down of variant Gαq protein over wild-type (western blot): specific knock-down of variant protein over wild-type counterparts
GNAQR183Q mutant allele
  expression of the GNAQR183Q mutant allele: reduced expression of the mutant allele

## UGCUUAGAGUUCAAGUCCC[dT][dT] (antisense GGGACUUGAACUCUAAGCA; dTdT overhangs, chemistry not fully specified) [siGNAQmut #1, siRNA to GNAQ c.548G>A p.(R183Q)]
[6]
  specific knock-down of variant Gαq protein over wild-type (western blot): specific knock-down of variant protein over wild-type counterparts
